Twelve molecules from patent US20250099400A1, “TERPENES FOR USE IN MODULATION OF A PHY[…]” (BUZZELET DEVELOPMENT AND TECHNOLOGIES LTD., priority 2022, published 2025) can be followed below.

Converted amounts (≈) assume the structure as drawn.

T1 sequence (P21554 whole entry): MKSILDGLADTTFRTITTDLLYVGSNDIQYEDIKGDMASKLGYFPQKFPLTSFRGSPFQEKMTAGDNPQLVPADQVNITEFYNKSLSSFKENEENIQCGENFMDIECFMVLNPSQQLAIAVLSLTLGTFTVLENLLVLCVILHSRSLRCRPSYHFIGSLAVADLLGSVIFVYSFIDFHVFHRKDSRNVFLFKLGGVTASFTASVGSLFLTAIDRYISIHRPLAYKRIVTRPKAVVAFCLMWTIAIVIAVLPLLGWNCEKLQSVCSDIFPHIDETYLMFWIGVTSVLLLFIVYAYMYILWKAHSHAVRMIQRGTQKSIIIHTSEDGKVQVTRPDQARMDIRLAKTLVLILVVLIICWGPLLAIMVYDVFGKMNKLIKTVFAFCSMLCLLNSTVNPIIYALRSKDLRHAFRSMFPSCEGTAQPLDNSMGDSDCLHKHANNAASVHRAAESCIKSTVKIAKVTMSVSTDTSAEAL

The first series addresses T1, CB1 receptor (Homo sapiens, UniProt P21554).
T1 construct: expressed in transfected cells; host or cells: Xenopus laevis oocytes injected with in vitro transcribed cRNA
In words: CB1 receptor-activated GIRK currents in Xenopus oocytes (two-electrode voltage clamp). The series is classed as cell-based. The settings on record: THC concentrations each supplemented with terpene at a weight/weight ratio of 1/10, compared with THC alone. As to the method:
cDNA plasmids of the two subunits of the G protein-activated inwardly rectifying K^+ channel (GIRK) (GIRK1 and GIRK2), the CB1 receptor, the CB2 receptor, and the α subunit of the G-protein (Gαi3) were linearized with the appropriate restriction enzymes. The linearized plasmids were transcribed in vitro using a standard procedure.
Oocytes were isolated from female adult X. laevis anesthetized (with 1 g/L MS-222) and incubated in NDE96 solution composed of ND96 (in mM: 96 NaCl, 2 KCl, 1 CaCl2, 1 MgCl2, 5 Hepes, with pH adjusted to 7.5 with NaOH) with the addition of 2.5 mM Na^+ pyruvate, 100 units/ml penicillin, and 100 μg/ml streptomycin (16). The isolated oocytes were injected with the relevant cRNAs: cRNAs of CB1 receptor and CB2 receptor (2 ng) and GIRK1 and GIRK2 (200 pg each) were injected. In addition, cRNA of Gαi3 (1000 pg) was injected to decrease the basal GIRK current (IK) and to improve the relative activation by the agonist.
Currents were measured 3-5 days after cRNA injection and were recorded using the standard two-electrode voltage clamp technique (Axoclamp 2B amplifier, Axon Instruments, Foster City, CA).
Each oocyte was placed in a recording bath containing ND96 solution and was impaled with two electrodes pulled from 1.5-mm Clark capillaries (Warner instruments, Hamden, CT). Both electrodes were filled with a 3M KCI solution and the electrode resistance was between 1 and 5 MΩ. The CB1 receptor-mediated GIRK and the CB2 receptor-mediated GIRK currents were measured in 24 mM K^+ solution (in mM: 72 NaCl, 24 KCl, 1 CaCl2, 1 MgCl2, 5 Hepes, with pH adjusted to 7.5 with KOH). Ba^+2 (1 mM) was used to block the currents in order to verify that the measured currents were indeed mediated by GIRK channels.
The dose response curves were fitted by equation 1:
Y=Bottom+X*(Top-Bottom)/(EC50+X), (1)
The responses evoked in the same oocyte by either THC and\or terpenes measurements, were normalized to this reference value.
The Xenopus oocytes functional expression system was used to test the possibility that the presence of various terpenes affects the activation of the CB1 receptor, as depicted schematically in FIG. 1A. To this end, Xenopus oocytes were injected with cRNAs of proteins involved in the pathway leading to activation of K^+ currents by CB1 receptor via βγ subunits of the G-proteins: The CB1 receptor, the two subunits of the GIRK channel (GIRK1 and GIRK2), and the Gαi3 subunit.
First, the dependence of THC-induced K^+ current (ITHC) on THC concentration (dose-response, DR) was measured. The oocyte was voltage-clamped to −80 mV in a low K^+ (2 mM K^+) solution, ND96. Basal GIRK current (IK) was developed upon replacement of the ND96 by the 24 mM K^+solution. This current represents the basal activation of GIRK channel by endogenous By subunits present in the oocytes. Then, five different concentrations of THC were applied sequentially in ascending order giving rise to ITHC. This current was terminated upon washout of THC. Employing this basic experimental protocol, a full DR curve was constructed.
In order to compare between oocytes, ITHC at any particular THC concentration was normalized to ITHC obtained at a 10 μM THC, defined as the reference response, at this same oocyte.
Take `C=C(C)[C@H]1CC=C(C)CC1` [limonene, limonene-D]: the “effect of terpene addition on the potency of THC in CB1 receptor activation” value (from here on “effect of terpene addition”) is reported as “significantly enhances the potency of THC”.

Regarding `C=C1CCC2(C(C)C)CC12` (stereo not drawn) [sabinene], the “effect of terpene addition” value is “significantly enhances the potency of THC”.

With `C=C1CCC2CC1C2(C)C` (stereo not drawn) [beta pinene, β-pinene], the “effect of terpene addition” value is “significantly enhances the potency of THC”.

For `C=CC(C)(O)CCC=C(C)C` (racemic) [linalool], the “effect of terpene addition” value is reported as “significantly enhances the potency of THC”.

As to `CC1(C)C2CCC1(C)C(O)C2` (stereo not drawn) [borneol], the “effect of terpene addition” value was “significantly enhances the potency of THC”.

For the molecule `C=CC(C)=CCC=C(C)C` [ocimene], the “effect of terpene addition” value is “significantly enhances the potency of THC”.

On to `CC(C)=CCC/C(C)=C/CO` [geraniol], for which the “effect of terpene addition” value was “significantly enhances the potency of THC”.

Test system in another series: not listed separately
In words: Solubility in the test solutions. The settings on record: 24 mM K+ solution, saline or isotonic, kinetic from dmso stock.
With `CCCCCc1cc(O)c2c(c1)OC(C)(C)[C@@H]1CCC(C)=C[C@@H]21` [THC, tetrahydrocannabinol, reference compound], the solubility – broadly, the dissolved amount per volume that the medium holds – turned out to be 10 µM (≈ 3.14 µg/mL).

The same series, now with this note: CB1 dose-response experiment; excluded from analysis.
As to `C=C1CC/C=C(\C)CC[C@@H]2[C@@H]1CC2(C)C` [β-caryophyllene], the “solubility relative to the tested concentration range” value is on record as “below the tested concentration range”.

Take `C=CC(C)(O)CCC=C(C)CCC=C(C)C` (stereo not drawn) [nerolidol]: the “solubility relative to the tested concentration range” value was “below the tested concentration range”.

Turning to `CC(C)=CCC[C@](C)(O)C1CC=C(C)CC1` (stereo partly drawn) [bisabolol], the “solubility relative to the tested concentration range” value is given as “below the tested concentration range”.

With `C/C1=C\CC/C(C)=C/CC(C)(C)/C=C/C1` [humulene], the “solubility relative to the tested concentration range” value was “below the tested concentration range”.
